Earlier results, collected in patent US20110086898A1, “PYRAZOLOOXAZOLE COMPOUND” (Eisai R&D Management Co., Ltd., priority 2009, published 2011).

Legend:
[1] = test system: rats; conditions: European Journal of Pharmacology, 492:195-201 (2004); cited from earlier work
[2] = test system: rats; conditions: Psychopharmacology, 150:317-324 (2000); cited from earlier work
[3] = test system: rats; conditions: Psychopharmacology, 137:184-190 (1998); cited from earlier work
[4] = test system: naltrexone-induced morphine withdrawal symptoms; conditions: pretreatment; Journal of Neurochemistry, 74: 199-208 (2000); cited from earlier work
[5] = test system: gastric emptying retardation after surgery; conditions: Gastroenterology, 125:654-659 (2003); cited from earlier work
[6] = test system: learning disability following acute stress; conditions: Behavioural Brain Research, 138: 207-213 (2003); cited from earlier work
[7] = test system: depression, depressive symptoms, anxiety; conditions: Journal of Psychiatric Research, 34:171-181 (2000); cited from earlier work
[8] = test system: rats; conditions: European Journal of Neuroscience, 13:373-380 (2001); cited from earlier work
[9] = test system: high-anxiety rats; conditions: particularly in high-anxiety rats; Journal of Psychiatric Research, 36:197-208 (2002); cited from earlier work
[10] = test system: hippocampal tau phosphorylation; conditions: Journal of Neuroscience, 27 (24): 6552-6562 (2007); cited from earlier work
[11] = test system: hypertension induced by intraventricular administration of CRF; conditions: Brain Research, 881: 204-207 (2000); cited from earlier work

## CCCCN(CC)c1nc(C)nc2c1c(C)cn2-c1c(C)cc(C)cc1C [CP-154526]
[1]
  anti-depressant and anti-anxiety actions: exhibits anti-depressant and anti-anxiety actions
[2]
  recurrence of stress-elicited alcohol-seeking behavior: inhibits
[3]
  recurrence of stress-elicited drug (heroin, cocaine)-seeking behavior: inhibits
[4]
  naltrexone-induced morphine withdrawal symptoms: inhibits
[5]
  gastric emptying retardation after surgery: recovers
[6]
  learning disability following acute stress: inhibits

## CCCN(CCC)c1cc(C)nc2c(-c3cnc(N(C)C)cc3C)c(C)nn12 [Example R121919]
[7]
  ameliorating depression, depressive symptoms, anxiety: effective
[8]
  anti-anxiety action: exhibits an anti-anxiety action
[9]
  stress-related sleep disorder: inhibits

## CCCCN(CC)c1nc(C)nc2c1c(C)c(C)n2-c1c(C)cc(C)cc1C [antalarmin]
[10]
  stress-induced hippocampal tau phosphorylation: inhibits
[11]
  hypertension induced by intraventricular administration of CRF: inhibits
